From article PMC8817134, “Galangin as a direct inhibitor of vWbp protects mice from Staphylococcus aureus‐induced pneumonia” (Journal of Cellular and Molecular Medicine, 2021) come the findings set out here.

Test [1] deals with T1, vWbp (von Willebrand factor-binding protein) (Staphylococcus aureus, UniProt Q93SM9, L69A).
T1 construct: gene vwb
Kind of test: biochemical. From the text:
(§1) fluorescence quenching on vWbp (von Willebrand factor-binding protein)

Test [2] concerns the target T2, vWbp (von Willebrand factor-binding protein) (Staphylococcus aureus, UniProt Q93SM9, D70A).
T2 construct: gene vwb
Kind of test: biochemical.
Source text: as §1

The target of test [3] is T3, vWbp (von Willebrand factor-binding protein) (Staphylococcus aureus, UniProt Q93SM9, W64A).
T3 construct: gene vwb
The test is described as follows: biochemical.
Source text: as §1

Test [4] addresses T4, vWbp (von Willebrand factor-binding protein) (Staphylococcus aureus, UniProt Q93SM9, M83A).
T4 construct: gene vwb
The test is described as follows: biochemical.
Source text: as §1

In test [5] the target is T5, vWbp (von Willebrand factor-binding protein) (Staphylococcus aureus, UniProt Q93SM9).
T5 construct: gene vwb; His-tagged, pET15b, E. coli BL21(DE3), Ni-NTA purified
Kind of test: fluorescence quenching. To be noted: read-out: WT vWbp (converted).
Source text: as §1

Test [6] has as its target T5, vWbp (von Willebrand factor-binding protein). The test is described as follows: tube and plate coagulation assay. To be noted: purified vWbp added to heparinised rabbit blood or fibrinogen agarose, 37 °C; 16-256 μg/ml galangin. Format: biochemical.
Test [7] shares this target. The test is described as follows: biolayer interferometry (Octet RED, Ni-NTA sensor). The conditions noted are these: read-out: binding constant. A general note: Biolayer interferometry detects binding as a change in optical thickness at a sensor tip.

In the case of `O=c1c(O)c(-c2ccccc2)oc2cc(O)cc(O)c12` [galangin, 3,5,7-trihydroxyflavone], the Kd was 31.2 µM in test [1]; 9.71 µM in test [2]; 20 µM in test [3]; 7.35 µM in test [4]; 6.9 µM in test [5]; 11 µM in test [7]. Besides, in test [6], the “tube and plate coagulation assay” value was “these results demonstrated that galangin can inhibit the coagulase activity of vWbp”.
